Article PMC7502707, “Characterization and validation of a preventative therapy for hypertrophic cardiomyopathy in a murine model of the disease” (Proceedings of the National Academy of Sciences of the …, 2020)
Marks after values point to notes of the source that are not given here.

Tests used:
cTnI-G203S mice = assay: Echocardiography of treated cTnI-G203S mice; assay type: in vivo, mouse; details: Pre-HCM treatment (from 20 wk), 25-wk-old cTnI-G203S mice, 10 μM i.p. 3×/wk/5 wk; mean, n = 7 AID(S)-TAT, n = 6 AID-TAT
Protocol: (§1) Male mice expressing the human cTnI gene encoding the human disease-causing mutation cTnI-G203S were used for all studies. The mice develop hallmark features of HCM by 21 wk ([7], [13]). Male mice expressing the normal human cTnI gene were used as controls (wt). Ten-week-old mice were used for in vitro studies. For in vivo studies, 20- or 30-wk-old cTnI-G203S mice were treated with 10 μM AID-TAT or AID[S]-TAT via intraperitoneal injection, 3×/wk/5 wk. In vivo dose of AID-TAT or AID[S]-TAT (10 μM) was calculated based on blood volume, equating to ∼2 mg/kg total BW. Male animal models were used to eliminate potential differences in responses due to sex. Experiments were performed in a total of 21 wt (AID[S]-TAT), 6 wt (AID-TAT), 15 cTnI-G203S (AID[S]-TAT), and 26 cTnI-G203S (AID-TAT) mice. All animals were randomly assigned to treatment groups. All animal studies were approved by the Animal Ethics Committee of The University of Western Australia in accordance with the 2013 Australian Code for the Care and Use of Animals for Scientific Purposes ([58]).
(§2) Echocardiographic measurement of left ventricular function were performed on mice under light methoxyflurane anesthesia using an i13L probe on a Vivid 7 Dimension ultrasound system (GE Healthcare), as previously described ([13], [29], [30]). Each n represents the average of quantitative measurements from wt or cTnI-G203S mice for each treatment group. Detailed methods are provided in SI Appendix.
(§3) Echocardiographic measurement of left ventricular function were performed on mice under light methoxyflurane anesthesia using an i13L probe on a Vivid 7 Dimension ultrasound system (GE Healthcare, Little Chalfont, United Kingdom) as previously described (4, 7). Echocardiographic measurements were taken on M-mode in triplicate from separate mice at a sweep speed of 200 mm/s. Each n represents the average of quantitative measurements from wt or cTnI-G203S mice for each treatment group. Measurements of left ventricular end diastolic diameter (LVEDD), left ventricular end systolic diameter (LVESD), fractional shortening (FS), left ventricular posterior wall in diastole (LVDPW), left ventricular posterior wall in systole (LVSPW), interventricular septum in diastole (IVSD), interventricular septum in systole (IVSS) and end diastolic diameter (EDD) were made. FS was calculated by the formula [(LVEDD-LVESD)/EDD] x 100. […]
(§4) (BioAssay Systems, Hayward CA). All assays were performed as per manufacturer’s instructions, using a spectrophotometer (PowerWave XS).

[1] = system: myocytes isolated from wt and cTnI-G203S mice; assay: Confocal imaging of F-actin (phalloidin) in myocytes from treated mice; assay type: in vivo, mouse; details: myocytes from cTnI-G203S mice treated 10 μM 3×/wk/5 wk, Pre HCM Rx
Protocol: Following completion of treatment regimens, myocytes were isolated and prepared for confocal imaging based on previously described methods ([29]). Detailed methods are provided in SI Appendix.
Echocardiographic measurement of left ventricular function were performed on mice under light methoxyflurane anesthesia using an i13L probe on a Vivid 7 Dimension ultrasound system (GE Healthcare, Little Chalfont, United Kingdom) as previously described (4, 7). Echocardiographic measurements were taken on M-mode in triplicate from separate mice at a sweep speed of 200 mm/s. Each n represents the average of quantitative measurements from wt or cTnI-G203S mice for each treatment group. […] FS was calculated by the formula [(LVEDD-LVESD)/EDD] x 100.
Cell size was determined as previously described (16). […]
To measure kidney toxicity, urea and creatinine concentration was assessed using QuantiChrom Urea and Creatinine assay kits respectively (BioAssay Systems, Hayward CA). To measure liver toxicity, alanine transaminase (ALT) and aspartate transaminase (AST) concentration was measured using Alanine Transaminase and Aspartate Transaminase assay kits respectively (BioAssay Systems, Hayward CA). […]

wt mice = assay: Echocardiography of treated wt mice; assay type: in vivo, mouse; details: 25-wk-old wt mice, 10 μM i.p. 3×/wk/5 wk from 20 wk; mean, n = 4
Protocol: as §1, §2, §3, §4

[2] = system: mice expressing β-MHC mutations; details: precardiomyopathic mice expressing β-MHC mutations, compared to untreated mutants; cited from earlier work
Description: Patients with HCM often present with early hypercontractility that stems from a high-degree of actin–myosin cross-linking ([36]). […] Recent studies have investigated the efficacy of a cardiac-specific small-molecule, Mavacamten (MYK-461), that inhibits β-MHC/actin binding and subsequently reduces sarcomere force output and contractility ([39], [40]), as a potential HCM therapeutic. Treatment of precardiomyopathic mice expressing β-MHC mutations with M ...

[3] = system: myocytes isolated from wt and cTnI-G203S mice; assay: MTT assay (formation of formazan) in myocytes isolated from treated mice; assay type: in vivo, mouse; details: for effect on metabolic activity (MTT): myocytes from wt or cTnI-G203S mice treated with AID(S)-TAT or AID-TAT, oligomycin 20 µM; for effect on BayK(−)-induced increase in metabolic activity (MTT): applied to myocytes from treated mice, nisoldipine 15 μM, Ru360 15 µM, dantrolene 20 µM
Protocol: The rate of reduction of MTT (Sigma-Aldrich) to formazan by the mitochondrial electron transport chain was measured in intact mouse cardiac myocytes, as previously described ([22], [25]). Each n represents number of replicates for each treatment group from cardiac myocytes isolated from a total of six wt [AID(S)-TAT], four cTnI-G203S [AID(S)-TAT], and three (AID-TAT) mice. Detailed methods are provided in SI Appendix. […]
The rate of reduction of 3-(4,5-Dimethyl-2-thiazolyl)-2,5-diphenyl-2H-tetrazolium bromide (MTT, Sigma-Aldrich, St. Louis, Missouri) to formazan by the mitochondrial electron transport chain was measured in intact mouse cardiac myocytes as previously described (1, 9). This reaction is dependent upon the presence of reduced nicotinamide adenine dinucleotide (NADH) and reduced nicotinamide adenine dinucleotide phosphate (NADPH), and intact mitochondrial electron transport (10). Cardiac myocytes were treated with relevant drugs in 96 well plates. MTT was added to each well to a final concentration of 0.5 mg/ml and the rate of the increase in absorbance immediately measured using a spectrophotometer at 37°C (PowerWave XS, 570 nm, reference wavelength of 620 nm). The rate of the increase in absorbance in response to treatments was expressed as a percentage of the rate of the increase prior to the addition of treatments. Each n represents number of replicates for each treatment group from cardiac myocytes isolated from a total of 6 wt (AID[S]- TAT), 4 cTnI-G203S (AID[S]-TAT), and 3 (AID-TAT) mice.
Immunoblot of ICa-L protein

[4] = system: myocytes isolated from wt and cTnI-G203S mice; assay: Mitochondrial membrane potential (JC-1) in myocytes isolated from treated mice; assay type: in vivo, mouse
Protocol: (§5) Male mice expressing the human cTnI gene encoding the human disease-causing mutation cTnI-G203S were used for all studies. […] Male mice expressing the normal human cTnI gene were used as controls (wt). Ten-week-old mice were used for in vitro studies. For in vivo studies, 20- or 30-wk-old cTnI-G203S mice were treated with 10 μM AID-TAT or AID[S]-TAT via intraperitoneal injection, 3×/wk/5 wk. In vivo dose of AID-TAT or AID[S]-TAT (10 μM) was calculated based on blood volume, equating to ∼2 mg/kg total BW. Male animal models were used to eliminate potential differences in responses due to sex. Experiments were performed in a total of 21 wt (AID[S]-TAT), 6 wt (AID-TAT), 15 cTnI-G203S (AID[S]-TAT), and 26 cTnI-G203S (AID-TAT) mice. All animals were randomly assigned to treatment groups.
Fluorescence was measured on a Hamamatsu Orca ER digital camera attached to an inverted Nikon TE2000-U microscope. Fluorescent indicator 5,5′,6,6′-tetrachloro-1,1′,3,3′-tetraethylbenzimidazolylcarbocyanine iodide was used to measure Ψm in cardiac myocytes, as previously described (JC-1, Molecular Probes) ([61]). Autofluorescence was used to measure flavoprotein oxidation in cardiac myocytes based on previously described methods ([13], [29], [62]). Responses to drugs were reported as a percentage increase from the basal average.
Cells were incubated in calcium-free HBS (supplemented with 3 mM EGTA and 200 nM JC-1) for at least 3 h prior to measuring changes in m. Sodium cyanide (NaCN, 40 mM, mitochondrial electron transport blocker) was added at the end of each experiment to collapse m, confirming that the JC-1 signal was indicative of m.
Additionally, individual 580 nm and 535 nm wavelength signals were assessed in each experiment to determine whether the fluorescent indicator was accurately measuring m. Autofluorescence was used to measure flavoprotein oxidation in cardiac myocytes based on previously described methods (ex = 480 nm, em = 535 nm, interval = 1 min, exposure = 1.5 seconds) (4, 6, 7). Carbonyl cyanide-4-(trifluoromethoxy)phenylhydrazone (FCCP, 50 μM, mitochondrial electron transport chain uncoupler) was added at the end of each experiment to increase flavoprotein oxidation confirming signal was mitochondrial in origin. Ratiometric JC-1 or flavoprotein fluorescent signals were quantified by manually tracing myocytes and subtracting an equivalent background region
Responses to drugs were reported as a percentage increase from the basal average. […]

[5] = system: myocytes isolated from wt and cTnI-G203S mice; assay: Flavoprotein oxidation in myocytes isolated from treated mice; assay type: in vivo, mouse; details: applied to myocytes from treated wt or cTnI-G203S mice; nisoldipine 15 μM
Protocol: as §5
Fluorescence was measured on a Hamamatsu Orca ER digital camera attached to an inverted Nikon TE2000-U microscope. […]
Additionally, individual 580 nm and 535 nm wavelength signals were assessed in each experiment to determine whether the fluorescent indicator was accurately measuring m. […] Ratiometric JC-1 or flavoprotein fluorescent signals were quantified by manually tracing myocytes and subtracting an equivalent background region […]

## QKILGEWDLAQYTDQELE [AID(S)-TAT, reference compound]
cTnI-G203S mice
  FS: 47.39 ^* %
  HW:BW: 5.14 ^* mg/g
  IVSD: 0.85 ^* mm
  IVSS: 0.96 ^* mm
  LVDPW: 1.31 mm
  LVEDD: 3.08 ^* mm
  LVESD: 1.62 ^* mm
  LVSPW: 1.43 mm
[1]
  F-actin organization: F-actin disorganization
Wt mice
  FS: 35.08%
  HW:BW: 4.33 mg/g
  IVSD: 0.76 mm
  IVSS: 0.86 mm
  LVDPW: 1.26 mm
  LVEDD: 3.56 mm
  LVESD: 2.31 mm
  LVSPW: 1.42 mm

## CC(C)n1c(=O)cc(N[C@@H](C)c2ccccc2)[nH]c1=O [MYK-461, Mavacamten]
[2]
  left ventricular wall thickness, FS, fibrosis and myocyte organization: reduce left ventricular wall thickness, FS, and fibrosis, and improve myocyte organization

## CC[C@H]1/C=C/C=C/C[C@@H](C)[C@H](O)[C@@](C)(O)C(=O)[C@@H](C)[C@H](O)[C@@H](C)C(=O)[C@@H](C)[C@H](O)[C@@H](C)/C=C/C(=O)O[C@@H]2[C@H](C)[C@H](CC1)O[C@]1(CC[C@H](C)[C@H](C[C@@H](C)O)O1)[C@H]2C [Oligomycin]
[3]
  effect on metabolic activity (MTT): significant decrease in metabolic activity

## O=C1CN(/N=C/c2ccc(-c3ccc([N+](=O)[O-])cc3)o2)C(O)=N1 [dantrolene]
[3]
  effect on BayK(−)-induced increase in metabolic activity (MTT): but not with ryanodine receptor blocker dantrolene

## COC(=O)C1=C(C)NC(C)=C([N+](=O)[O-])C1c1ccccc1C(F)(F)F (stereo not drawn) [BayK(+), reference compound]
[4]; myocytes from wt or cTnI-G203S mice treated with AID(S)-TAT or AID-TAT
  effect on Ψm: did not significantly alter Ψm
[3]
  effect on metabolic activity (MTT): did not significantly alter metabolic activity

## Ru360
[3]
  effect on BayK(−)-induced increase in metabolic activity (MTT): attenuated

## COC(=O)C1=C(C)NC(C)=C(C(=O)OCC(C)C)C1c1ccccc1[N+](=O)[O-] (centres unmarked) [nisoldipine, reference compound]
[5]
  effect on BayK(−)-induced increase in flavoprotein oxidation: attenuated
[4]; applied to myocytes from treated wt or cTnI-G203S mice, nisoldipine 15 μM
  effect on BayK(−)-induced increase in Ψm: attenuated
[3]
  effect on BayK(−)-induced increase in metabolic activity (MTT): attenuated
